No end group written: not given here.
How the values were obtained:
C. albicans ATCC90028 = assay: CO-ADD antifungal screening, MIC; type: cell-based, Candida albicans; conditions: yeast nitrogen base, 2.5 × 10^3 CFU/mL, 35 °C 24 h, OD530, n=2
[1] = test system: human dermal microvascular endothelial cells (HDMEC); assay: HDMEC cytotoxicity assay; type: cell-based; conditions: concentration at 50% cytotoxicity
[2] = test system: human embryonic kidney cells (HEK 293); assay: HEK 293 cytotoxicity assay; type: cell-based; conditions: concentration at 50% cytotoxicity, CO-ADD
S. aureus = conditions: ref [58]; cited from earlier work
E. coli = conditions: ref [58]; cited from earlier work

Substance | MIC C. albicans ATCC90028* (C. albicans ATCC90028) [µM] | HDMEC (CC50) [1] [µM] | HEK293 (CC50) [2] [µM] | MIC against S. aureus (S. aureus) [µM] | MIC against E. coli (E. coli) [µM]
GLFDIVKKVVGLLK-NH2 [compound 8] | >21 | 28 |  |  | 
KLLKLLKKLLKALG-NH2 [compound 17] | 20 | 4 | >20 |  | 
GLFDIVKKVVKLLK-NH2 [compound 7] | >20 | 236 |  |  | 
KLLKLVKKVVGALG-NH2 [compound 13] | >22 | 533 |  |  | 
GLFDIVKKVVGALG-NH2 [Au2.2d2, reference compound] | >23 | 64 |  |  | 
WWKRWKKLRRIFLML |  |  |  | 4 | 4
GLFDIVKKVVGALK-NH2 [compound 9] | >22 | 103 |  |  | 
KLLKLLKKLLKLLK-NH2 [Klk14, reference compound] | 9 | 3 | 10 |  | 
GLFKLLKKLLKLLK-NH2 [compound 2] | >20 | 2 | >19 |  | 
KLLKLLKKLLGALG-NH2 [compound 16] | 11 | 8 | 7 |  | 
KLLKLLKKLVGALG-NH2 [compound 15] | 21 | 25 | 12 |  | 

Reference: article PMC7547863 (Biochemistry, 2020)
